The values below come from patent US5679708A, “Epoxysuccinic acid derivatives, their production and use” (Takeda Chemical Industries, Ltd., priority 1994, dated 1997).

The term IC50 denotes the concentration needed to halve the response being measured. For orientation: inhibition means the drop in the measured response relative to a control, in per cent.

Counter-ions that a name gives are not always drawn.

One data set is described as follows: Toxicity study. The following applies: rats, orally, 300 mg/kg. It is filed as in vivo. The procedure: Compound 1 caused no death in rats when it was orally administered at 300 mg/kg.
Data set [1] addresses T1, human recombinant cathepsin L (Homo sapiens, UniProt P07711).
T1 construct: they were identified as a precursor of human cathepsin L and a product processed therefrom; made in house; host or cells: mouse myeloma Sp2/0 cells stably transformed with pTBN-HCLneo (Sp-HCL26); secreted, purified from serum-free culture supernatant
In words: Determination of cathepsin L inhibitory activity. Format: biochemical. The conditions noted are these: human recombinant cathepsin L 1 ng; 20 μM Z-Phe-Arg-7MCA; pH 5.5; 37° C., 20 minutes; read-out: Inhibitory activity potency IC50 (Cathepsin L) (converted). As to the method: (a) Determination of cathepsin L inhibitory activity
To 75 μl of a reaction mixture containing 1 ng of human recombinant cathepsin L (those produced in Reference Examples 1 through 7 below were employed), 2 μM of dithiothreitol (hereinafter abbreviated as DTT), 1 mM of ethylenediaminetetraacetate disodium salt, 0.1M of a sodium acetate buffer solution (pH 5.5) and various concentrations of the sample, 25 μl of 20 μM benzyloxycarbonyl-L-phenylalanyl-L-arginine-4-methylcoumaryl-7-amide (hereinafter simply referred to as Z-Phe-Arg-7MCA, manufactured by Peptide Institute, Inc.) was added to initiate the reaction, and the reaction mixture was incubated at 37° C. for 20 minutes, followed by addition of 100 μl of a solution containing 100 mM of sodium monochloroacetate to suspend the reaction. The amount of liberated 4-methyl-7-aminocoumarin was determined at an excitation wavelength of 365 nm and a fluorescence wavelength of 450 nm, using a fluorophotometer (FCA: manufactured by Baxter Labs). The sample concentration required to cause 50% inhibition was expressed as the IC50 value, with the fluorescence value obtained from the same reaction in the absence of the sample taken as 100%.

Another data set concerns the target T2, cathepsin B (Homo sapiens, UniProt P07858).
T2 construct: purchased Sigma Chemical Co
Briefly: Determination of cathepsin B inhibitory activity. The following applies: cathepsin B 30 ng (Sigma); 20 μM Z-Phe-Arg-7MCA; pH 5.5; 37° C., 20 minutes; read-out: Inhibitory activity potency IC50 (TABLE 2, head printed Cathepsin L) (converted). Format: biochemical. As to the method:
(b) Determination of cathepsin B inhibitory activity
To 75 μl of a reaction mixture containing 30 ng of cathepsin B (produced by Sigma Chemical Co.), 2 μM DTT, 1 mM ethylenediaminetetraacetate disodium salt, 0.1M sodium acetate buffer (pH 5.5) and various concentrations of the sample, 25 μl of 20 μM Z-Phe-Arg-7MCA was added to initiate the reaction, and the reaction mixture was incubated at 37° C. for 20 minutes, followed by addition of 100 μl of a solution containing 100 mM sodium monochloroacetate to suspend the reaction. The amount of liberated 4-methyl-7-aminocoumarin was determined at an excitation wavelength of 365 nm and a fluorescence wavelength of 450 nm, using a fluorophotometer. The sample concentration required to cause 50% inhibition was expressed as the IC50 value, with the fluorescence value obtained from the same reaction in the absence of the sample taken as 100%.

Data set [2] has as its system bone resorption as enhanced by PTH (parathyroid hormone). Briefly: Determination of bone resorption suppressive activity (PTH-enhanced, isolated mouse femur culture). Format: cell-based, female BALB/c mice. The following applies: 168 h, test compound 10 μg/ml, PTH 1 μM, 7 days culture, total calcium content, 100x(Cp-Cs)/(Cp-Cc). As to the method: Further, the compound (I) of this invention or salts thereof have an excellent activity of suppressing bone resorption. Their suppressive action against bone resorption as enhanced by PTH (parathyroid hormone) was determined by the method described below. The results are shown in [Table 3].
Determination of bone resorption suppressive activity
Femurs were aseptically isolated from female BALB/c mice at 8-10 weeks of age. After the bone marrow cavity was washed with a Ham's F-12 medium containing 10% (w/w) thermally inactivated fetal calf serum, 100 unit/ml penicillin G and 100 unit/ml streptomycin (hereinafter referred to as culture broth), each femur was added to 1 ml of the culture broth and precultured for 3 hours at 37° C. in the presence of 5% carbon dioxide gas and 95% air. Each bone was transferred to 1 ml of the culture broth supplemented with PTH (produced by Peptide Institute, Inc., final concentration of 1 μM) and the test compound (final concentration 10 μg/ml (and cultured for 7 more days, after which the total calcium content in the culture broth was determined using Calcium E-Test Wako (manufactured by Wako Pure Chemical Industries, Ltd.). The bone resorption suppressive activity of the test compound was calculated using the following equation:
Bone resorption suppressive activity(%)=100x(Cp-Cs)/(Cp-Cc)
Cc: Total calcium content in the culture broth containing neither PTH nor test compound
Cp: Total calcium content in the culture broth containing PTH
Cs: Total calcium content in the culture broth containing both PTH and test compound

T1 sequence (P07711 114-333): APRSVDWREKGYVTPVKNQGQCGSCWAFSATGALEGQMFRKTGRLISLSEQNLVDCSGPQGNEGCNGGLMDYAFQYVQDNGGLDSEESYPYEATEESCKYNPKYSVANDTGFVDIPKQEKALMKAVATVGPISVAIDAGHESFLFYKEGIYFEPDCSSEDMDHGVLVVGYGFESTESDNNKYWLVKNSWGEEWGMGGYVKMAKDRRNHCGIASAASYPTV

As to `CCOC(=O)[C@H]1O[C@@H]1C(=O)N[C@@H](Cc1ccccc1)C(=O)NCCCOC` [Compound 1, N-[N-[(2S,3S)-3-trans-ethoxycarbonyloxysirane-2-carbonyl]-L-phenylalanyl]-1-amino-3-methoxypropane], in the data set “Toxicity study”, the “death after oral administration” value is reported as “no death”.
Consider `CSCCCNC(=O)[C@H](Cc1ccccc1)NC(=O)[C@H]1O[C@@H]1C(=O)O` [Compound 8, N-[N-[(2S,3S)-3-trans-carboxyoxirane-2-carbonyl]-L-phenylalanyl]-1-amino-3-methylthiopropane monosodium salt], for which the values for the 50% inhibitory concentration (IC50) (in data set [1]; at cathepsin B) were 8.19 nM and 5.46 nM, respectively. Also, the inhibition at 10 µg/mL in data set [2] amounted to 142%.
As for `COCCCNC(=O)[C@H](Cc1ccccc1)NC(=O)[C@H]1O[C@@H]1C(=O)O` [Compound 2, N-[N-[(2S,3S)-3-trans-carboxyoxirane-2-carbonyl]-L-phenylalanyl]-1-amino-3-methoxypropane monosodium salt], in data set [1], the IC50 was 8.56 nM.
For the compound `CC(=O)OCCCNC(=O)[C@H](Cc1ccccc1)NC(=O)[C@H]1O[C@@H]1C(=O)O` [Compound 6, N-[N-[(2S,3S)-3-trans-carboxyoxirane-2-carbonyl]-L-phenylalanyl]-3-amino-acetoxypropane monosodium salt], the IC50 in data set [1] was 13.2 nM. Moreover, the inhibition at 10 µg/mL in data set [2] is 144%.
Turning to `O=C(NCCCO)[C@H](Cc1ccccc1)NC(=O)[C@H]1O[C@@H]1C(=O)O` [Compound 4, N-[N-[(2S,3S)-3-trans-carboxyoxirane-2-carbonyl]-L-phenylalanyl]-3-amino-1-propanol monosodium salt], the inhibition at 10 µg/mL in data set [2] worked out at 176%.
